Consider 8 compounds from ChEMBL document CHEMBL1137931, “Anti-AIDS agents. Part 58: synthesis and anti-HIV activity of 1-thia-di-O-(-)-camphanoyl-(+)-cis-khellactone (1-thia-DCK) analogues” (Bioorg Med Chem Lett, 2004).

The test system of data set [1] is H9. In words: Concentration required to inhibit HIV-1 replication by 50% in acutely infected H9 lymphocytes; NA means not active. The class given is functional, cell-based, Homo sapiens.
Data set [2] deals with H9. In words: Concentration required to inhibit uninfected H9 cell growth by 50%. The class given is functional, cell-based. The note with it: Homo sapiens.
Data set [3] in a line: Therapeutic index expressed as IC50/EC50. The settings on record: read-out: TI.
The test system of data set [4] is H9. Nature of the data set: Concentration required to inhibit HIV-1 replication by 50% in acutely infected H9 lymphocytes. The class given is functional, cell-based. The note with it: Homo sapiens.

The term EC50 denotes the concentration needed to bring the measured effect to its halfway point. Read a high EC50 as weaker potency. Broadly, the IC50 is the concentration at which inhibition is half-maximal. A high value points to weaker potency.

For the compound `Cc1cc(=O)sc2c3c(ccc12)OC(C)(C)[C@H](O)[C@@H]3O`, the EC50 result in the data set with H9 [1] is “Not Active”. In addition, the IC50 in the data set on H9 [2] stood at 302 µM.

For the compound `Cc1cc(=O)sc2c3c(ccc12)OC[C@H](OC(=O)C12CCC(C)(C(=O)O1)C2(C)C)[C@@H]3OC(=O)C12CCC(C)(C(=O)O1)C2(C)C` (stereo not given in full), the IC50 with H9 [2] stood at 194 µM. Also, in data set [3], the selectivity ratio stood at 62.3.

For the compound `Cc1cc(=O)sc2c3c(ccc12)OC(C)(C)C=C3`, in the data set on H9 [1], the EC50 entry is recorded as “Not Active”. In the data set with H9 [2], this compound showed an IC50 of 339 µM.

For `Cc1cc(=O)sc2c3c(ccc12)OC[C@H](O)[C@@H]3O`, the IC50 with H9 [2] was 340 µM. The selectivity ratio in data set [3] came out at 11.1.

`CC1(C)Oc2ccc3ccc(=O)oc3c2[C@@H](OC(=O)C23CCC(C)(C(=O)O2)C3(C)C)[C@H]1OC(=O)C12CCC(C)(C(=O)O1)C2(C)C` (stereo not given in full) gave an EC50 in the data set on H9 [4] of 0.000256 µM. Further, the selectivity ratio in data set [3] came to 137000.

`Cc1cc(=O)sc2c3c(ccc12)OCC=C3` showed an IC50 in the data set on H9 [2] of 478 µM. In addition, the selectivity ratio in data set [3] was 62.3.

For `Cc1cc(=O)sc2c3c(ccc12)OC(C)(C)[C@H](OC(=O)C12CCC(C)(C(=O)O1)C2(C)C)[C@@H]3OC(=O)C12CCC(C)(C(=O)O1)C2(C)C` (stereo not given in full), a half-maximal effect in the data set with H9 [4] (EC50) was put at 120 µM. The same compound gave a half-inhibitory concentration (IC50) with H9 [2] of 169 µM.

Compound `Cc1cn([C@H]2C[C@H](N=[N+]=[N-])[C@@H](CO)O2)c(=O)[nH]c1=O` [ZIDOVUDINE] registered an EC50 in the data set on H9 [4] of 0.045 µM.
